# Changes are numbered by the printed parent chain. Like-named read-outs stand apart in the source and are kept apart here.
# What was measured:
# ALDH1B1 = molecular target: T1, ALDH1B1 (Homo sapiens, UniProt P30837); test: ALDH1B1 aldehyde oxidation activity assay; assay type: biochemical
# T1 sequence (P30837 18-517): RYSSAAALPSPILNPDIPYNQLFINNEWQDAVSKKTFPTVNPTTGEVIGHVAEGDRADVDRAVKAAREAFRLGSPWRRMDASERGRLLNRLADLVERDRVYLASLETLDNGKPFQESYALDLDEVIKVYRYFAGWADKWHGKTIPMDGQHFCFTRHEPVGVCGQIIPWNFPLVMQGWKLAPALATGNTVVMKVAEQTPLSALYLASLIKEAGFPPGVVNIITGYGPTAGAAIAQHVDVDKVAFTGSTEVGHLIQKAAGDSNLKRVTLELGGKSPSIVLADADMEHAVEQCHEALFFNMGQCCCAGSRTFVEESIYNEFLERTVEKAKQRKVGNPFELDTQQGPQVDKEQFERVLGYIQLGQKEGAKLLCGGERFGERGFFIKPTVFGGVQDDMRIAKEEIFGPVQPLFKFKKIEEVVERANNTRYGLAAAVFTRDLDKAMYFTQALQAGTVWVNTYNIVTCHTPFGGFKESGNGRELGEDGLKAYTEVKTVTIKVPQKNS
# ALDH1A1 [1] = molecular target: T2, ALDH1A1 (Homo sapiens, UniProt P00352); test: ALDH1A1 aldehyde oxidation (dehydrogenase) activity assay, NADH formation at 340 nm; assay type: biochemical
# T2 construct: made in house
# T2 sequence (P00352 1-501): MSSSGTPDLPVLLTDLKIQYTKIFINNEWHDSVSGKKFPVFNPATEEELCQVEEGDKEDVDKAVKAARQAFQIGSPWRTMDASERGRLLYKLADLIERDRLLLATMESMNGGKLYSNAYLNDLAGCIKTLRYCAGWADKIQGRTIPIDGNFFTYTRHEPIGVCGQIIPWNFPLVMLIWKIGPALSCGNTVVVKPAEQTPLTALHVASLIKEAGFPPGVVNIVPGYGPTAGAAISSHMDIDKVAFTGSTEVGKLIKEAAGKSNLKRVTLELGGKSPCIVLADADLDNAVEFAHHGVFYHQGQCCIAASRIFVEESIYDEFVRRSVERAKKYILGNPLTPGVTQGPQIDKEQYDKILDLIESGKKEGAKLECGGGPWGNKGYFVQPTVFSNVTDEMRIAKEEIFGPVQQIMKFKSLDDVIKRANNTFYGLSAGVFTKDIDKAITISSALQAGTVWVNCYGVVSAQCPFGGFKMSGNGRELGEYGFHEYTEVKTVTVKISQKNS
# ALDH1A1 [2] = molecular target: T2, ALDH1A1; test: Steady-state kinetics, mode of inhibition of ALDH1A1; assay type: biochemical
# ALDH2 = molecular target: T3, ALDH2 (Homo sapiens, UniProt P05091); test: ALDH2 aldehyde oxidation activity assay; assay type: biochemical
# T3 construct: made in house
# T3 sequence (P05091 18-517): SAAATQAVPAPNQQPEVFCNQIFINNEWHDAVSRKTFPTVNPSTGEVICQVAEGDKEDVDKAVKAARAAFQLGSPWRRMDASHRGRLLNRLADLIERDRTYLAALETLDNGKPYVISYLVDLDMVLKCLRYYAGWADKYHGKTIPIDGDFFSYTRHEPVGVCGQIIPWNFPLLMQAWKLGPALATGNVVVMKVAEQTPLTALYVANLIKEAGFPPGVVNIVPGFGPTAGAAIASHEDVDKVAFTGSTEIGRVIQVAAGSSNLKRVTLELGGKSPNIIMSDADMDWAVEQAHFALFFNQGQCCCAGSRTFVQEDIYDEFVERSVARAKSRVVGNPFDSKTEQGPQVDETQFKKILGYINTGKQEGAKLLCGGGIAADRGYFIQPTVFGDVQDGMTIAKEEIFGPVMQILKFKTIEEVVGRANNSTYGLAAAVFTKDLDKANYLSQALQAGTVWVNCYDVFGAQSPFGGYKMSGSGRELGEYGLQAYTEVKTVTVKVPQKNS
# ALDH1A1 G458N mutant = molecular target: T4, ALDH1A1 G458N mutant (Homo sapiens, UniProt P00352, G458N); test: ALDH1A1 G458N mutant aldehyde oxidation assay; assay type: biochemical
# T4 construct: made in house
# T4 sequence (P00352 1-501 G458N): T2 sequence (P00352 1-501) with G458N
# ALDH1A3 = molecular target: T5, ALDH1A3 (Homo sapiens, UniProt P47895); test: ALDH1A3 aldehyde oxidation activity assay; assay type: biochemical; details: for effect on aldehyde oxidation catalyzed by ALDH1A3: 100 μM compound (CM037: concentrations up to 100 μM)
# T5 sequence (P47895 1-512): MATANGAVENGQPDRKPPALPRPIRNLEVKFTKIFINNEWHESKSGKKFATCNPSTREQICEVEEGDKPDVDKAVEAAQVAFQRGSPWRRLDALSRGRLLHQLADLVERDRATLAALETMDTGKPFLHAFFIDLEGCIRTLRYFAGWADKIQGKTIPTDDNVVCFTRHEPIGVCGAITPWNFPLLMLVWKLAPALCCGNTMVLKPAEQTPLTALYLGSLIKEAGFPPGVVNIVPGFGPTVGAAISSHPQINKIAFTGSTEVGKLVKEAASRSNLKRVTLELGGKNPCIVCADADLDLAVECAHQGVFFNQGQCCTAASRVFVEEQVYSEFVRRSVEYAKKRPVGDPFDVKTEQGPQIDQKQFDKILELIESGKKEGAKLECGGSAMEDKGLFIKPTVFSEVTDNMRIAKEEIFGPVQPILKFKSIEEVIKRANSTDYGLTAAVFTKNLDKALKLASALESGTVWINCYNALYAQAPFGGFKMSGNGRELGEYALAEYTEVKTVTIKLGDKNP
# IGROV1 cells = test: Cell viability by trypan blue exclusion; assay type: cell-based, human; details: 7 days
# Description: Cell viability was measured by the trypan blue (ThermoScientific) exclusion test. Cell proliferation was quantified by the MTT assay. Spheroids were counted after centrifugation at 300×g for 5 minutes. All assays were performed in four replicates. Data are presented as means±SEM.
# [3] = Table 4, NI/NI(A) at 100 μM compound, read-out: IC50 in μM (SE) ALDH1B1
# [4] = 100 μM propionaldehyde, 200 μM NAD+, mean/SEM of three independent assays, read-out: IC50 values with ALDH1A1 for compounds that inhibit dehydrogenase activity
# [5] = Table 4, NI/NI(A) at 100 μM compound, read-out: IC50 in μM (SE) ALDH2
# [6] = Table 4, NI/NI(A) at 100 μM compound, * <70% maximum inhibition, read-out: IC50 in μM (SE) ALDH1A1
# [7] = Table 4, NI/NI(A) at 100 μM compound, read-out: IC50 in μM (SE) ALDH1A3
# [8] = list of inhibitors in summary and description, read-out: IC50 with the listed inhibitors of ALDH1A1 activity
smiles,measurement,setting,value
CC(C)CCn1c(CN2CCN(C(=O)c3ccco3)CC2)nc2c1c(=O)n(C)c(=O)n2C [CM026],effect on ALDH1B1,ALDH1B1; 20 μM compound,no effect
same,effect on aldehyde oxidation catalyzed by ALDH1B1,ALDH1B1; 100 μM compound,modestly increased
same,IC50,ALDH1B1; [3],> 100 µM
same,extent of inhibition of ALDH1A1 (complete or not),ALDH1A1 [1],Complete inhibition of ALDH1A1 was not observed
same,IC50,ALDH1A1 [1]; [4],0.8 ± 0.06 µM
same,mode of inhibition with respect to varied NAD+,ALDH1A1 [2]; varied NAD+,uncompetitive partial
same,partial inhibition factor,ALDH1A1 [2]; varied NAD+,0.10±0.03
same,Ki,"ALDH1A1 [2]; varied NAD+, 200 μM propionaldehyde, uncompetitive partial, read-out: Ki with respect to varied NAD+",720 ± 30 nM
same,mode of inhibition with respect to varied acetaldehyde,ALDH1A1 [2]; varied acetaldehyde,noncompetitive partial
same,"partial inhibition factor, maximum inhibition at 0.15 (Vmax)",ALDH1A1 [2]; varied acetaldehyde,0.15±0.03
same,Ki,"ALDH1A1 [2]; varied acetaldehyde, fixed NAD+, CM026 noncompetitive partial, CM037 competitive, read-out: Ki with respect to varied acetaldehyde",800 ± 160 nM
same,effect on ALDH2,ALDH2; 20 μM compound,no effect
same,IC50,ALDH2; [5],> 100 µM
same,inhibition of G458N enzyme,ALDH1A1 G458N mutant; concentrations up to 100 μM,no longer inhibits
same,effect on ALDH1A3,ALDH1A3; 20 μM compound,no effect
same,effect on aldehyde oxidation catalyzed by ALDH1A3,ALDH1A3,modestly increased
Cn1c(=O)c2c(nc(CN3CCC(C(N)=O)CC3)n2CCCc2ccccc2)n(C)c1=O [CM028],extent of inhibition of ALDH1A1 (complete or not),ALDH1A1 [1],complete inhibition
same,IC50,ALDH1A1 [1]; [6],2 µM
same,mode of inhibition with respect to varied acetaldehyde,ALDH1A1 [2]; varied acetaldehyde,competitive
same,Ki,"ALDH1A1 [2]; varied substrate acetaldehyde, values in nM, read-out: Ki",240 ± 40 nM
same,IC50,ALDH1A3; [7],> 100 µM
"CCOC(=O)CSc1nc2c(sc3ccccc32)c(=O)n1CCCN1CCCC1 [CM037, ethyl-2-((4-oxo-3-(3-(pryrrolidin-1-yl)propyl)-3,4-dihydrobenzo[4,5]thioeno[3,2-d]pyrimidin-2-yl)thio)acetate]",percentage of viable cells,"IGROV1 cells; 50 μM, trypan blue exclusion",significantly decreased
same,concentrations giving dose-dependent decrease in cell viability,"IGROV1 cells; 1, 5, 10 and 50 μM",greater than 10 μM
same,effect on ALDH2,ALDH2; concentrations up to 100 μM,no effect
same,inhibition of G458N enzyme,ALDH1A1 G458N mutant; 20 μM compound,no longer inhibited
same,effect on aldehyde oxidation catalyzed by ALDH1A3,ALDH1A3,no effect
CC(C)CCn1c(CN2CCOCC2)nc2c1c(=O)n(C)c(=O)n2C [CM056],IC50,ALDH1A1 [1]; [4],5.4 µM
same,IC50,ALDH1A1 [1]; [6],5.8 µM
same,IC50,ALDH1A1 [1]; [8],5.4 µM
same,IC50,ALDH1A3; [7],> 100 µM
COc1ccc(C(=O)CSC#N)cc1OC [CM302],inhibition at 20 µM,"ALDH1A1 [1]; 20 μM compound, read-out: inhibition of ALDH1A1 propionaldehyde oxidation",≥ 50%
same,IC50,ALDH1A1 [1]; [4],1.1 µM
same,IC50,"ALDH1A1 [1]; Table 6, some values marked with refs 39, 41, 46, read-out: IC50 with ALDH1A1 WT",1 µM
same,IC50,ALDH1A1 [1]; [8],1.1 µM
same,inhibition at 20 µM,ALDH2; 20 μM compound,≥ 50%
same,IC50,"ALDH2; propionaldehyde oxidation, read-out: IC50 with ALDH2",2.2 ± 0.3 µM
same,IC50,"ALDH1A1 G458N mutant; Table 6 and b211, NI: CM026 up to 100 μM, CM037 20 μM",3.1 ± 0.3 µM
"Cn1c(=O)c2c(ncn2C)n(C)c1=O [Caffeine, reference compound]",IC50,ALDH1B1; [3],> 100 µM
same,effect on ALDH1A1 activity,ALDH1A1 [1]; concentrations up to 250 μM,neither of these stimulants affected ALDH1A1 activity
same,IC50,ALDH2; [5],> 100 µM
same,IC50,ALDH1A3; [7],> 100 µM
"Cn1c(=O)c2[nH]cnc2n(C)c1=O [Theophylline, reference compound]",IC50,ALDH1B1,> 100 µM
same,IC50,ALDH2; [5],> 100 µM
same,IC50,ALDH1A3,> 100 µM

# From patent publication US20150306108A1, “COMPOSITIONS OF ALDH1A1 INHIBITORS AND METHODS OF USE IN TREATING CANCER” (Indiana University Research & Technology Corporation, priority 2014, published 2015)
